Laboratory results: patent US20150105252A1, “SUBSTITUTED PYRAZOLES AS HERBICIDES” (E I DU PONT DE NEMOURS AND COMPANY, priority 2013, published 2015)

How the values were obtained:
[1] = system: Surinam grass; assay: Test E preemergence; format: in vivo, Brachiaria decumbens; conditions: 21 days, scale 0 to 100
Source text: (§1) Seeds of plant species selected from bermudagrass (Cynodon dactylon), Surinam grass (Brachiaria decumbens), crabgrass, large (large crabgrass, Digitaria sanguinalis), crabgrass, naked (naked crabgrass, Digitaria nuda), foxtail, green (green foxtail, Setaria viridis), johnsongrass (Sorghum halepense), kochia (Kochia scoparia), morningglory (pitted morningglory, Ipomoea lacunosa), nutsedge, purple (purple nutsedge, Cyperus rotundus), ragweed (common ragweed, Ambrosia elation), mustard, black (black mustard, Brassica nigra), guineagrass (Panicum maximum), dallisgrass (Paspalum dilatatum), barnyardgrass (Echinochloa crus-galli), sandbur (southern sandbur, Cenchrus echinatus), sowthistle (common sowthistle, Sonchus oleraceous), ryegrass, Italian (Italian ryegrass, Lolium multiflorum), signalgrass (broadleaf signalgrass, Brachiaria platyphylla), dayflower, VA (Virginia (VA) dayflower, Commelina virginica), bluegrass (annual bluegrass, Poa annua), quackgrass (Elytrigia repens), mallow (common mallow, Malva sylvestris), buckwheat, wild (wild buckwheat, Polygonum convolvulus), leafy spurge (Euphorbia esula), common chickweed (Stellaria media), wild poinsettia (Euphorbia heterophylla), pigweed, palmer (palmer pigweed, Amaranthus palmeri), and pigweed (redroot pigweed, Amaranthus retroflexus) were planted into a blend of loam soil and sand and treated preemergence with test chemicals formulated in a non-phytotoxic solvent mixture which included a surfactant.
(§2) Treated plants and controls were maintained in a greenhouse for 21 days, after which time all species were compared to controls and visually evaluated. Plant response ratings, summarized in Table E, are based on a scale of 0 to 100 where 0 is no effect and 100 is complete control. A dash (-) response means no test result.

[2] = system: barnyardgrass; assay: Test E preemergence; format: in vivo, Echinochloa crus-galli; conditions: 21 days, scale 0 to 100
Source text: as §1, §2

[3] = system: dayflower, VA; assay: Test F postemergence; format: in vivo, Commelina virginica; conditions: scale 0 to 100
Source text: (§3) Seeds of plant species selected from corn (Zea mays), soybean (Glycine max), velvetleaf (Abutilon theophrasti), lambsquarters (Chenopodium album), wild poinsettia (Euphorbia heterophylla), pigweed, palmer (palmer pigweed, Amaranthus palmeri), common waterhemp (Amaranthus rudis), surinam grass (Brachiaria decumbens), large crabgrass (Digitaria sanguinalis), crabgrass, Brazil (Brazilian crabgrass, Digitaria horizontalis), fall panicum (Panicum dichotomiflorum), giant foxtail (Setaria faberii), green foxtail (Setaria viridis), goosegrass (Eleusine indica), johnsongrass (Sorghum halepense), common ragweed (Ambrosia elation), barnyardgrass (Echinochloa crus-galli), southern sandbur (Cenchrus echinatus), arrowleaf sida (Sida rhombifolia), Italian ryegrass (Lolium multiflorum), dayflower, VA (Virginia (VA) dayflower, Commelina virginica), field bindweed (Convolvulus arvensis), cocklebur (common cocklebur, Xanthium strumarium), morningglory (Ipomoea coccinea), nightshade (eastern black nightshade, Solanum ptycanthum), kochia (Kochia scoparia), yellow nutsedge (Cyperus esculentus), and hairy beggarticks (Bidens pilosa), were planted into a silt loam soil and treated preemergence with test chemicals formulated in a non-phytotoxic solvent mixture which included a surfactant.
(§4) At the same time, plants from these crop and weed species and also horseweed (Canada horseweed, Conyza canadensis), smartweed (ladysthumb smartweed, Polygonum persicaria), waterhemp_RES1, (ALS & Triazine resistant common waterhemp, Amaranthus rudis), and waterhemp_RES2, (ALS & HPPD resistant common waterhemp, Amaranthus rudis) were treated with postemergence applications of test chemicals formulated in the same manner. Plants ranged in height from 2 to 18 cm for postemergence treatments (1- to 4-leaf stage). Treated plants and controls were maintained in a greenhouse for 14 to 21 days, after which time all species were compared to controls and visually evaluated. Plant response ratings, summarized in Table F, are based on a scale of 0 to 100 where 0 is no effect and 100 is complete control. A dash (-) response means no test result.

[4] = system: common waterhemp; assay: Test F postemergence; format: in vivo, Amaranthus rudis; conditions: scale 0 to 100
Source text: as §3, §4

[5] = system: waterhemp_RES1 (ALS & Triazine resistant common waterhemp); assay: Test F postemergence; format: in vivo, Amaranthus rudis; conditions: scale 0 to 100
Source text: as §3, §4

[6] = system: waterhemp_RES2 (ALS & HPPD resistant common waterhemp); assay: Test F postemergence; format: in vivo, Amaranthus rudis; conditions: scale 0 to 100
Source text: as §3, §4

[7] = system: ryegrass, Italian; assay: Test D preemergence; format: in vivo, Lolium multiflorum; conditions: scale 0 to 100
Source text: Seeds of plant species selected from bluegrass (annual bluegrass, Poa annua), blackgrass (Alopecurus myosuroides), canarygrass (littleseed canarygrass, Phalaris minor), chickweed (common chickweed, Stellaria media), galium (catchweed bedstraw, Galium aparine), bromegrass, downy (downy bromegrass, Bromus tectorum), field poppy (Papaver rhoeas), field violet (Viola arvensis), foxtail, green (green foxtail, Setaria viridis), deadnettle (henbit deadnettle, Lamium amplexicaule), ryegrass, Italian (Italian ryegrass, Lolium multiflorum), kochia (Kochia scoparia), lambsquarters (Chenopodium album), oilseed rape (Brassica napus), pigweed (redroot pigweed, Amaranthus retroflexus), chamomile (scentless chamomile, Matricaria inodora), speedwell (bird's-eye speedwell, Veronica persica), barley, spring (spring barley, Hordeum vulgare), wheat, spring (spring wheat, Triticum aestivum), buckwheat, wild (wild buckwheat, Polygonum convolvulus), mustard, wild (wild mustard, Sinapis arvensis), oat, wild (wild oat, Avena fatua), radish, wild (wild radish, Raphanus raphanistrum), windgrass (Apera spica-venti), Russian thistle (Salsola kali), barley, winter (winter barley, Hordeum vulgare), and wheat, winter (winter wheat, Triticum aestivum) were planted into a silt loam soil and treated preemergence with test chemicals formulated in a non-phytotoxic solvent mixture which included a surfactant.
At the same time, these species were planted in pots containing Redi-Earth® planting medium (Scotts Company, 14111 Scottslawn Road, Marysville, Ohio 43041) comprising spaghnum peat moss, vermiculite, wetting agent and starter nutrients and treated with postemergence applications of the test chemicals formulated in the same manner. Plants ranged in height from 2 to 18 cm (1- to 4-leaf stage). Treated plants and controls were maintained in a controlled growth environment for 14 to 21 days after which time all species were compared to controls and visually evaluated. Plant response ratings, summarized in Table D, are based on a scale of 0 to 100 where 0 is no effect and 100 is complete control. A dash (-) response means no test result.

SMILES: CCCc1cc(C(=O)NCC(F)(F)F)nn1Cc1ccnc(C(F)(F)F)c1 [Compound 105]
- Plant response rating, Surinam Grass ([1]; 16 g ai/ha): 35
- Plant response rating, Surinam Grass ([1]; 31 g ai/ha): 40
- Plant response rating, Surinam Grass ([1]; 62 g ai/ha): 80
- Plant response rating, Surinam Grass ([1]; 125 g ai/ha): 95
- Plant response rating, Surinam Grass ([1]; 250 g ai/ha): 100
- Plant response rating, Barnyardgrass ([2]; 16 g ai/ha): 35
- Plant response rating, Barnyardgrass ([2]; 31 g ai/ha): 70
- Plant response rating, Barnyardgrass ([2]; 62 g ai/ha): 85
- Plant response rating, Barnyardgrass ([2]; 125 g ai/ha): 95
- Plant response rating, Barnyardgrass ([2]; 250 g ai/ha): 98
- Plant response rating, Dayflower, VA ([3]; Postemergence, 31 g ai/ha): 20
- Plant response rating, Dayflower, VA ([3]; Postemergence, 125 g ai/ha): 80
- Plant response rating, Dayflower, VA ([3]; Postemergence, 250 g ai/ha): 85
- Plant response rating, Dayflower, VA ([3]; postemergence, 62 g ai/ha): 50
- Plant response rating, Dayflower, VA ([3]; postemergence, 500 g ai/ha): 90
- Plant response rating, Common Waterhemp ([4]; Postemergence, 31 g ai/ha): 65
- Plant response rating, Common Waterhemp ([4]; Postemergence, 125 g ai/ha): 65
- Plant response rating, Common Waterhemp ([4]; Postemergence, 250 g ai/ha): 75
- Plant response rating, Common Waterhemp ([4]; postemergence, 62 g ai/ha): 60
- Plant response rating, Common Waterhemp ([4]; postemergence, 500 g ai/ha): 80
- Plant response rating, Waterhemp_RES1 ([5]; Postemergence, 31 g ai/ha): 70
- Plant response rating, Waterhemp_RES1 ([5]; Postemergence, 125 g ai/ha): 75
- Plant response rating, Waterhemp_RES1 ([5]; Postemergence, 250 g ai/ha): 90
- Plant response rating, Waterhemp_RES1 ([5]; postemergence, 62 g ai/ha): 70
- Plant response rating, Waterhemp_RES1 ([5]; postemergence, 500 g ai/ha): 95
- Plant response rating, Waterhemp_RES2 ([6]; Postemergence, 31 g ai/ha): 60
- Plant response rating, Waterhemp_RES2 ([6]; Postemergence, 125 g ai/ha): 75
- Plant response rating, Waterhemp_RES2 ([6]; Postemergence, 250 g ai/ha): 85
- Plant response rating, Waterhemp_RES2 ([6]; postemergence, 62 g ai/ha): 70
- Plant response rating, Waterhemp_RES2 ([6]; postemergence, 500 g ai/ha): 95

SMILES: CCCc1cc(C(=O)NCC(F)(F)F)nn1Cc1cc(C(F)(F)F)nn1C [Compound 138]
- Plant response rating, Ryegrass, Italian ([7]; 62 g ai/ha): 35
- Plant response rating, Ryegrass, Italian ([7]; 125 g ai/ha): 70
- Plant response rating, Ryegrass, Italian ([7]; 250 g ai/ha): 90

SMILES: CCOc1cc(C(=O)NC2CC2)nn1Cc1ccnc(C(F)(F)F)c1 [Compound 189]
- Plant response rating, Ryegrass, Italian ([7]; 62 g ai/ha): 40
- Plant response rating, Ryegrass, Italian ([7]; 125 g ai/ha): 60
- Plant response rating, Ryegrass, Italian ([7]; 250 g ai/ha): 95
- Plant response rating, Surinam Grass ([1]; 4 g ai/ha): 0
- Plant response rating, Surinam Grass ([1]; 8 g ai/ha): 0
- Plant response rating, Surinam Grass ([1]; 16 g ai/ha): 25
- Plant response rating, Surinam Grass ([1]; 31 g ai/ha): 80
- Plant response rating, Surinam Grass ([1]; 62 g ai/ha): 100
- Plant response rating, Barnyardgrass ([2]; 4 g ai/ha): 0
- Plant response rating, Barnyardgrass ([2]; 8 g ai/ha): 0
- Plant response rating, Barnyardgrass ([2]; 16 g ai/ha): 35
- Plant response rating, Barnyardgrass ([2]; 31 g ai/ha): 100
- Plant response rating, Barnyardgrass ([2]; 62 g ai/ha): 100
